The record followed here is patent US20230339891A1, “URACIL DERIVATIVES AS MER-AXL INHIBITORS” (BRISTOL-MYERS SQUIBB COMPANY, priority 2018, published 2023).

In assay [1] the target is GST-MERTK 578-872 (Homo sapiens (Human), UniProt Q12866). Description: MERTK kinase homogeneous time resolved fluorescence (HTRF) binding assay. The conditions noted are these: 1 nM kinase, fluorescein-labeled kinase tracer at Kd, 60 minutes at room temperature; read-out: Mer HTRF IC50. The protocol: (§1) MERTK, AXL, TYRO3 Kinase Homogeneous Time Resolved Fluorescence (HTRF) Assay
(§2) Assays were performed in black, flat-bottom, 1536-well plates. The reactions were incubated at room temperature for 60 minutes, following which the HTRF signals, ratio of fluorescence intensities at emission wavelengths for fluorescein acceptor (520 nm) and terbium donor (495 nm), the 520/495 ratio, were measured on the Envision Plate reader. Inhibition data were calculated from the 520/495 ratio generated by the no protein control reactions for 100% inhibition and vehicle-only reactions for 0% inhibition, and dose response curves generated to determine the concentration required for inhibiting 50% of the HTRF signal (IC50). Compounds were dissolved at 10 mM in dimethylsulfoxide (DMSO) and evaluated at eleven concentrations.
Background: In TR-FRET formats the signal depends on donor and acceptor labels being close together.

Assay [2] deals with HIS-AXL 473-End (Homo sapiens (Human), UniProt P30530). Put plainly: AXL kinase homogeneous time resolved fluorescence (HTRF) binding assay. The conditions noted are these: 1 nM kinase, fluorescein-labeled kinase tracer at Kd, 60 minutes at room temperature. On the procedure:
as §1, §2

The structures appear in SMILES notation. pIC50: −log10 of the molar value.

Sequence of GST-MERTK 578-872 (Q12866 578-872): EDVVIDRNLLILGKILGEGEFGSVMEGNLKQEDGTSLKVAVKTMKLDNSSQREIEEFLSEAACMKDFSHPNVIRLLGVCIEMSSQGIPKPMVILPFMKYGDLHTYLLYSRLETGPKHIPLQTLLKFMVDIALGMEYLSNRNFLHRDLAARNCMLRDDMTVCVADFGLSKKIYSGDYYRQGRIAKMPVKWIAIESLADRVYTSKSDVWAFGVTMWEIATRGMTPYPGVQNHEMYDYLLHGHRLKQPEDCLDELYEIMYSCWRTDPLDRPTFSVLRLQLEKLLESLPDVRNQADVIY
Sequence of HIS-AXL 473-End (P30530 473-894): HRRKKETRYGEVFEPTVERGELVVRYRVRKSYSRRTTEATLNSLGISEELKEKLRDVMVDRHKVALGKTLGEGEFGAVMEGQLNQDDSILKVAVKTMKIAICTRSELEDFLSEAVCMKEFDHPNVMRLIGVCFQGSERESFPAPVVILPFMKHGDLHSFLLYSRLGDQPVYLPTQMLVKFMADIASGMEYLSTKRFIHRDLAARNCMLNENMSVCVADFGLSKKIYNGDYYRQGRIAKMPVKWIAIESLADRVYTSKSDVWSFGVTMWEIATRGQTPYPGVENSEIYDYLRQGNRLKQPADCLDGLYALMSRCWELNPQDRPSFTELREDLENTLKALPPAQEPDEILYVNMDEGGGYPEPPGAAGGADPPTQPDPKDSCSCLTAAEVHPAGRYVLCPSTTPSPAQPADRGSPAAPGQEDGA

The term pIC50 denotes the negative decadic logarithm of the IC50, by convention in mol/L. Take `CC(C)n1cc(C(=O)Nc2ccc(Oc3ccnc(Nc4ccnc(N5CCCC5)n4)c3)c(F)c2)c(=O)n(CC2CC2)c1=O` [Example 110]: in assay [1], the pIC50 was 8.80.
As for `Cn1cc(C(=O)Nc2ccc(Oc3ccnc(Nc4ccc(S(C)(=O)=O)cn4)c3)c(F)c2)c(=O)n(-c2ccc(F)cc2)c1=O` [Example 38], the pIC50 in assay [1] is 7.80; in assay [2], 8.46.
In the same order, the values of `CC(C)n1cc(C(=O)Nc2ccc(Oc3ccnc(Nc4ccc5cc[nH]c5n4)c3)c(F)c2)c(=O)n(-c2ccc(F)cc2)c1=O` [Example 25] are 7.89 and 8.44.
For `C[C@H](CO)n1cc(C(=O)Nc2ccc(Oc3ccnc(Nc4ccc(S(=O)(=O)N(C)C)cn4)c3)c(F)c2)c(=O)n(-c2ccc(F)cc2)c1=O` [Example 55], the pIC50 in assay [1] was 8.17.
Take `CC(C)n1cc(C(=O)Nc2ccc(Oc3ccnc(Nc4ccc(C(N)=O)cn4)c3)c(F)c2)c(=O)n(-c2ccc(F)cc2)c1=O` [Example 16]: the pIC50 in assay [1] is 8.24; in assay [2], 8.96.
For the compound `CC(C)n1cc(C(=O)Nc2ccc(Oc3ccnc(Nc4ncc(C(F)(F)F)cn4)c3)c(F)c2)c(=O)n(-c2ccc(F)cc2)c1=O` [Example 30], the pIC50 in assay [1] was 6.78; in assay [2], 7.32.
For `CCOc1cnc(Nc2cc(Oc3ccc(NC(=O)c4cn(C(C)C)c(=O)n(-c5ccc(F)cc5)c4=O)cc3F)ccn2)cn1` [Example 29], in that order: 6.74 and 8.14.
For `CC(C)n1cc(C(=O)Nc2ccc(Oc3ccnc(Nc4ccc(C#N)c(N5CCCC5)n4)c3)c(F)c2)c(=O)n(-c2ccc(F)cc2)c1=O` [Example 117], in that order: 8.55 and 8.52.
Turning to `CC(C)n1cc(C(=O)Nc2ccc(Oc3ccnc(Nc4ccnc(N5CCCC5)n4)c3)c(F)c2)c(=O)n(C23CC(C2)C3)c1=O` [Example 104, 3-(Bicyclo[1.1.1]pentan-1-yl)-N-(3-fluoro-4-((2-((2-(pyrrolidin-1-yl)pyrimidin-4-yl)amino)pyridin-4-yl)oxy)phenyl)-1-isopropyl-2,4-dioxo-1,2,3,4-tetrahydropyrimidine-5-carboxamide], the pIC50 in assay [1] is 8.41; in assay [2], 8.51.
In the same order, the values of `CC(C)n1cc(C(=O)Nc2ccc(Oc3ccnc(Nc4ccc(N5CCC(N)C5=O)cn4)c3)c(F)c2)c(=O)n(-c2ccc(F)cc2)c1=O` (centres unmarked) [Example 90] are 8.51 and 8.66.
For `CC(=O)c1ccc(-n2c(=O)c(C(=O)Nc3ccc(Oc4ccnc(Nc5ccc(S(=O)(=O)N(C)C)cn5)c4)c(F)c3)cn(C(C)C)c2=O)cc1` [Example 64], in that order: 6.09 and 6.74.
With `CN(C)S(=O)(=O)c1ccc(Nc2cc(Oc3ccc(NC(=O)c4cn(C)c(=O)n(-c5ccc(F)cc5)c4=O)cc3F)ccn2)nc1` [Example 44], the pIC50 in assay [1] was 7.15; in assay [2], 7.72.
In the same order, the values of `CC(C)n1cc(C(=O)Nc2ccc(Oc3ccnc(Nc4cnc(C#N)cn4)c3)c(F)c2)c(=O)n(-c2ccc(F)cc2)c1=O` [Example 26] are 7.22 and 7.74.
Take `Cc1cc(Nc2cc(Oc3ccc(NC(=O)c4cn(C(C)C)c(=O)n(-c5ccc(F)cc5)c4=O)cc3F)ccn2)ncc1S(=O)(=O)N(C)C` [Example 86, N-{4-[(2-{[5-(dimethylsulfamoyl)-4-methylpyridin-2-yl]amino}pyridin-4-yl)oxy]-3-fluorophenyl}-3-(4-fluorophenyl)-2,4-dioxo-1-(propan-2-yl)-1,2,3,4-tetrahydropyrimidine-5-carboxamide]: the pIC50 was 7.51 in assay [1] and 8.00 in assay [2].
As for `CC(C)n1cc(C(=O)Nc2ccc(Oc3ccnc(Nc4ccc(S(=O)(=O)N(C)C)cn4)c3)c(F)c2)c(=O)n(-c2cccc(C(F)(F)F)c2)c1=O` [Example 72], the pIC50 was 6.92 in assay [1] and 7.05 in assay [2].
For the compound `CC(C)n1cc(C(=O)Nc2ccc(Oc3ccnc(Nc4ccc(OC(F)(F)F)cn4)c3)c(F)c2)c(=O)n(-c2ccc(F)cc2)c1=O` [Example 11], the pIC50 was 6.89 in assay [1] and 7.28 in assay [2].
In the same order, the values of `CCc1cnc(Nc2cc(Oc3ccc(NC(=O)c4cn(C(C)C)c(=O)n(-c5ccc(F)cc5)c4=O)cc3F)ccn2)nc1` [Example 32] are 6.47 and 9.05.
For `CC(C)n1cc(C(=O)Nc2ccc(Oc3ccnc(Nc4ccc(C#N)c(N5CCN(S(C)(=O)=O)CC5)n4)c3)c(F)c2)c(=O)n(-c2ccc(F)cc2)c1=O` [Example 116, N-{4-[(2-{[5-cyano-6-(4-methanesulfonylpiperazin-1-yl)pyridin-2-yl]amino}pyridin-4-yl)oxy]-3-fluorophenyl}-3-(4-fluorophenyl)-2,4-dioxo-1-(propan-2-yl)-1,2,3,4-tetrahydropyrimidine-5-carboxamide], in that order: 9.00 and 8.82.
`COc1cccc(-n2c(=O)c(C(=O)Nc3ccc(Oc4ccnc(Nc5ccc(S(=O)(=O)N(C)C)cn5)c4)c(F)c3)cn(C(C)C)c2=O)c1` [Example 71]: the pIC50 in assay [1] was 7.40; in assay [2] it was 7.92.
For `CC(C)n1cc(C(=O)Nc2ccc(Oc3ccnc(Nc4ccc(S(=O)(=O)NC(C)(C)C)cn4)c3)c(F)c2)c(=O)n(-c2ccc(F)cc2)c1=O` [Example 80], in that order: 7.72 and 7.92.
For `CC(C)n1cc(C(=O)Nc2ccc(Oc3ccnc(Nc4ccc(S(=O)(=O)N(C)C)cn4)c3)c(F)c2)c(=O)n(-c2ccc(F)cn2)c1=O` [Example 48], in that order: 7.82 and 8.36.
For `CC(C)n1cc(C(=O)Nc2ccc(Oc3ccnc(Nc4ccc(C(F)F)cn4)c3)c(F)c2)c(=O)n(-c2ccc(F)cc2)c1=O` [Example 10], in that order: 7.37 and 7.82.
For the compound `CC(C)n1cc(C(=O)Nc2ccc(Oc3ccnc(Nc4ccc(N5CCN(C(C)(C)C)C5=O)cn4)c3)c(F)c2)c(=O)n(-c2ccc(F)cc2)c1=O` [Example 91], the pIC50 was 7.14 in assay [1] and 7.42 in assay [2].
For `CC(C)n1cc(C(=O)Nc2ccc(Oc3ccnc(Nc4ccc(S(=O)(=O)N5CCN(C)CC5)cn4)c3)c(F)c2)c(=O)n(-c2ccc(F)cc2)c1=O` [Example 85], the values for the pIC50 in assay [1] and in assay [2] were 7.72 and 8.41, respectively.
For `CC(C)n1cc(C(=O)Nc2ccc(Oc3ccnc(Nc4ccc(C(F)(F)F)c(N5CCN(S(C)(=O)=O)CC5)n4)c3)c(F)c2)c(=O)n(-c2ccc(F)cc2)c1=O` [Example 138, N-{3-fluoro-4-[(2-{[6-(4-methanesulfonylpiperazin-1-yl)-5-(trifluoromethyl)pyridin-2-yl]amino}pyridin-4-yl)oxy]phenyl}-3-(4-fluorophenyl)-2,4-dioxo-1-(propan-2-yl)-1,2,3,4-tetrahydropyrimidine-5-carboxamide], in that order: 7.70 and 7.64.
For `Cc1ccc(-n2c(=O)c(C(=O)Nc3ccc(Oc4ccnc(Nc5ccc(S(=O)(=O)N(C)C)cn5)c4)c(F)c3)cn(C(C)C)c2=O)cc1` [Example 62, N-{4-[(2-{[5-(Dimethylsulfamoyl)pyridin-2-yl]amino}pyridin-4-yl)oxy]-3-fluorophenyl}-3-(4-methylphenyl)-2,4-dioxo-1-(propan-2-yl)-1,2,3,4-tetrahydropyrimidine-5-carboxamide], in that order: 7.64 and 8.34.
For `CC(C)n1cc(C(=O)Nc2ccc(Oc3ccnc(Nc4ccc(S(=O)(=O)N(C)C)c(N5CCN(S(C)(=O)=O)CC5)n4)c3)c(F)c2)c(=O)n(-c2ccc(F)cc2)c1=O` [Example 99, N-{4-[(2-{[5-(dimethylsulfamoyl)-6-(4-methanesulfonylpiperazin-1-yl)pyridin-2-yl]amino}pyridin-4-yl)oxy]-3-fluorophenyl}-3-(4-fluorophenyl)-2,4-dioxo-1-(propan-2-yl)-1,2,3,4-tetrahydropyrimidine-5-carboxamide], in that order: 8.19 and 8.13.
Consider `CC(C)n1cc(C(=O)Nc2ccc(Oc3ccnc(Nc4ccc(C(C)(C)O)cn4)c3)c(F)c2)c(=O)n(-c2ccc(F)cc2)c1=O` [Example 15], for which the figures for the pIC50 in assay [1] and in assay [2] were 8.10 and 8.77, respectively.
With `CC(C)n1cc(C(=O)Nc2ccc(Oc3ccnc(Nc4ccnc(N5CCCC5)n4)c3)c(F)c2)c(=O)n(CC2CCCCC2)c1=O` [Example 111], in assay [1], the pIC50 is 7.85.
Same read-out and setting: next, `CC(C)NC(=O)c1ccc(Nc2cc(Oc3ccc(NC(=O)c4cn(C(C)C)c(=O)n(-c5ccc(F)cc5)c4=O)cc3F)ccn2)nc1` [Example 94]: 8.46.
Same read-out and setting: next, `C[C@H](CO)n1cc(C(=O)Nc2ccc(Oc3ccnc(Nc4ccc(S(=O)(=O)N(C)C)cn4)c3)c(F)c2)c(=O)n(-c2ccc(F)cc2)c1=O` [Example 56]: 7.77; `COC(=O)N1CCN(c2nc(Nc3cc(Oc4ccc(NC(=O)c5cn(C(C)C)c(=O)n(Cc6ccccc6)c5=O)cc4F)ccn3)ccc2C#N)CC1` [Example 130]: 8.15.
Turning to `CC(C)n1cc(C(=O)Nc2ccc(Oc3ccnc(Nc4ccc(C#N)c(N5CCC(O)(C(F)(F)F)CC5)n4)c3)c(F)c2)c(=O)n(Cc2ccccc2)c1=O` [Example 132], in assay [1], the pIC50 is 7.92.
